Earlier results, collected in patent US10385405B2, “Gene expression markers of tumor resistance to HER2 inhibitor treatment” (GENENTECH, INC., priority 2007, dated 2019).

What was measured:
[1] = tested on: trastuzumab-resistant models harboring PTEN loss or PIK3CA activating mutations
[2] = tested on: incurable, locally advanced, recurrent or metastatic solid tumors

Compound | sensitivity of trastuzumab-resistant models [1] | tolerability ([2]; given intravenously every 3 weeks) | confirmed partial responses ([2]; in vivo) | tumor regression ([2]; patients evaluable for response) | pharmacokinetics, linearity (doses of 2.0-15 mg/kg) | antibodies to pertuzumab (in vivo)
CS(=O)(=O)N1CCN(Cc2cc3nc(-c4cccc5[nH]ncc45)nc(N4CCOCC4)c3s2)CC1 [GDC-0941] | sensitive | – | – | – | – | –
Pertuzumab: HER dimerization inhibitor antibody that inhibits HER2 forming heterodimers with other HER receptors | – | generally well tolerated | Two | 3 of 20 | linear | not detected
